Tests used:
[1] = tested on: male rat of SD strain; experiment: D-galactosamine-induced necrosis of hepatocytes in rat, plasma AST and ALT; assay type: in vivo; conditions: AMS 1.0 g/kg oral in 0.3% CMC 1 hour before D-galactosamine 600 mg/kg i.p., plasma after 24 hours, p<0.05
Protocol: Action of Aminomethanesulfonic Acid (AMS) to Necrosis of Hepatocytes (Method of Experiment)
A male rat of SD strain of 6 weeks age (150 g) was introduced, subjected to a preliminary breeding by giving CRF-1 (a feed manufactured by Oriental Yeast) and water for six days, fasted for one night and used for the experiment. During the fasting, a 10% aqueous solution of glucose was freely taken by the rat for preventing the lowering of blood-sugar level. D-galactosamine (600 mg/kg) adjusted to pH 6.8 was intraperitoneally administered using a 30% physiological saline solution. After 24 hours from administration of D-galactosamine, 700 μl of blood were collected from subclavian vein under anesthetization with ether and AST (aspartate aminotransferase) and ALT (alanine aminotransferase) in plasma were measured by a Fuji Dry Chem (an automated biochemical measuring apparatus for blood manufactured by Fuji Photo-Film). One hour before the administration of D-galactosamine, AMS was orally administered as a drug to be tested using a 0.3% aqueous solution of carboxymethyl cellulose (CMC).
Group 2: AMS (1.0 g/kg)/0.3% CMC n=8.

[2] = tested on: TNFα production in Kupffer cells; experiment: LPS-induced TNFα production in rat Kupffer cells (ELISA); assay type: cell-based; conditions: LPS 10 μg/ml, AMS 0.1 to 3 mM (glycine 0.3 to 30 mM), supernatant after 4 hours, FIG. 1
Protocol: A male rat of SD strain (body weight: 200-300 g) was subjected to laparotomy under anesthetization with Nembutal, a collagenase solution was perfused from portal vein, then the liver was excised and Kupffer cells were separated by an elutriator method. The Kupffer cells were adjusted to 5×10^5 cells/ml, each 100μ/well thereof were spread on a 96-well microplate and incubation was carried out for 48 hours using E-MEM (Eagle-MEM) and 10% FCS (fetal calf serum) to conduct the experiment. LPS (lipopoly saccharide) (10 μg/ml) and aminomethanesulofonic acid (AMS) or glycine were added at the same time thereto so as to make their concentrations 0.1 to 3 mM or 0.3 to 30 mM, respectively and the amount of TNFα produced in a supernatant liquid after incubation for 4 hours was measured by an ELISA (enzyme-linked immunosorbent assay).

## NCS(=O)(=O)O [aminomethanesulfonic acid]
[1]; FIG. 2
  rise in ALT in the plasma: significantly inhibited
[1]; FIG. 3
  rise in AST in the plasma: significantly inhibited
[2]
  inhibition of the production of TNFα: inhibited the production of TNFα in a considerably strong manner as compared with glycine
